melting point [°C] | SMILES
120 to 121 | CC(C#N)(COc1ccc(Cl)cc1)NS(=O)(=O)Cc1ccccc1 (centres unmarked)
119 to 120 | CC(C#N)(COc1ccc(Cl)cc1)S(=O)(=O)Cc1ccc(Cl)cc1 (centres unmarked)

Source: patent publication US20050234125A1, “Alpha-sulfonylamino-acetonitriles” (priority 2002, published 2005)
